Source: patent US11655235B2, “Pyrrolidine and piperidine compounds” (YUHAN CORPORATION, priority 2019, dated 2023)

Tests used:
Format in all cases: biochemical
recombinant human DPP7 = molecular target: T1, recombinant human DPP7 (Homo sapiens, UniProt Q9UHL4); test: DPP7 inhibition, fluorogenic substrate Lys-Pro-AMC; conditions: recombinant human DPP7
T1 construct: purchased R&D Systems
In short: (§1)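 Enzyme per reaction: 50 ng DPP9, 20 ng DPP8, 10 ng each DPP7 and PREP. Compounds were serially diluted (8 points, up to 0.5% DMSO) and incubated at 25 °C.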

recombinant human DPP9 = molecular target: T2, recombinant human DPP9 (Homo sapiens, UniProt Q86TI2); test: DPP9 inhibition, fluorogenic substrate H-Gly-Pro-AMC; conditions: recombinant human DPP9
T2 construct: purchased R&D Systems
T2 sequence (Q86TI2 whole entry): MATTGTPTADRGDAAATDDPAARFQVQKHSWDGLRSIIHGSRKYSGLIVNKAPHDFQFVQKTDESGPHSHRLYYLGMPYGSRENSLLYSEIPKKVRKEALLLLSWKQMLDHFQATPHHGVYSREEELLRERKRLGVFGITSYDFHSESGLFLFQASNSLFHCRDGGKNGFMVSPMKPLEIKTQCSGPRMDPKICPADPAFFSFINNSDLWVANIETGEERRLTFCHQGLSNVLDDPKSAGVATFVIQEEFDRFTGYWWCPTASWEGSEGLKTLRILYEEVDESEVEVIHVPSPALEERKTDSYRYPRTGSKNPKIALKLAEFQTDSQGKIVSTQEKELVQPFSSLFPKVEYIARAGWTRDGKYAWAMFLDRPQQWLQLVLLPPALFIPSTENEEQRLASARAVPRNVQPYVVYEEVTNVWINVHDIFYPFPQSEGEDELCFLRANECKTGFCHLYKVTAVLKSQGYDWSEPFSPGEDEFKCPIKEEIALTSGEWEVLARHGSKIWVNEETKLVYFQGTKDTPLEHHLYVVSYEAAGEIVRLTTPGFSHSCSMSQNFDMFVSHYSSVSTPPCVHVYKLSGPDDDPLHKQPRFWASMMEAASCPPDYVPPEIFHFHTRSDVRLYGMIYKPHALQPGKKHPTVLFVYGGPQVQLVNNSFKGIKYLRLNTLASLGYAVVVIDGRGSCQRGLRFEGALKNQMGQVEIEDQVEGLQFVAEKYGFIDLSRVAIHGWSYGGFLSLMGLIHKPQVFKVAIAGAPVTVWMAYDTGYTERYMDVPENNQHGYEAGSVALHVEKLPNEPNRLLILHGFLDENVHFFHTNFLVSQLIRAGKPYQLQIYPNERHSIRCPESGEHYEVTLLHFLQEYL
In short: as §1

recombinant human PREP = molecular target: T3, recombinant human PREP (Homo sapiens, UniProt P48147); test: PREP inhibition, fluorogenic substrate Z-Gly-Pro-AMC; conditions: Inhibitory Activity (IC50, nM) PREP, recombinant human PREP
T3 construct: purchased R&D System
T3 sequence (P48147 1-710): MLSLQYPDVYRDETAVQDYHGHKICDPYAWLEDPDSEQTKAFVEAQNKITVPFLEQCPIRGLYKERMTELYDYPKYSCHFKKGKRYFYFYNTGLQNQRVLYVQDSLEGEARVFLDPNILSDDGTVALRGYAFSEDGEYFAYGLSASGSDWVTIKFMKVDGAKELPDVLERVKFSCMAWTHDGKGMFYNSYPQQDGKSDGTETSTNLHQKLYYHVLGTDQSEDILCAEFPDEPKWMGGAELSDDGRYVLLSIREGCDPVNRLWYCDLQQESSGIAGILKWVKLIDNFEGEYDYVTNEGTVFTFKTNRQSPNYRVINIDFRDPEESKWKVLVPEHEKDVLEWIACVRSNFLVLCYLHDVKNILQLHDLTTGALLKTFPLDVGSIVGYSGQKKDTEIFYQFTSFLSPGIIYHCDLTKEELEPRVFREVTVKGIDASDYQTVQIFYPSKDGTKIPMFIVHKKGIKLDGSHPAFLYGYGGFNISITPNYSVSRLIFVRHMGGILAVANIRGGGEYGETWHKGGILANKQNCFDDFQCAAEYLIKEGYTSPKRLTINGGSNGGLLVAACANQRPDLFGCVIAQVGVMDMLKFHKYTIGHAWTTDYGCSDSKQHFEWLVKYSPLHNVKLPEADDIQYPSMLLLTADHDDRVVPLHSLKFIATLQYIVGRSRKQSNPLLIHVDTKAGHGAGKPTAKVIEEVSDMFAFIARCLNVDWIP
In short: as §1

Recombinant human FAP [1] = molecular target: T4, Recombinant human FAP (Homo sapiens, UniProt Q12884); test: FAP FRET assay, FGF21-sequence FRET peptide substrate; conditions: FRET peptide with human FGF21 sequence, 6 μM, 37° C.
T4 construct: purchased R&D systems
T4 sequence (Q12884 1-760): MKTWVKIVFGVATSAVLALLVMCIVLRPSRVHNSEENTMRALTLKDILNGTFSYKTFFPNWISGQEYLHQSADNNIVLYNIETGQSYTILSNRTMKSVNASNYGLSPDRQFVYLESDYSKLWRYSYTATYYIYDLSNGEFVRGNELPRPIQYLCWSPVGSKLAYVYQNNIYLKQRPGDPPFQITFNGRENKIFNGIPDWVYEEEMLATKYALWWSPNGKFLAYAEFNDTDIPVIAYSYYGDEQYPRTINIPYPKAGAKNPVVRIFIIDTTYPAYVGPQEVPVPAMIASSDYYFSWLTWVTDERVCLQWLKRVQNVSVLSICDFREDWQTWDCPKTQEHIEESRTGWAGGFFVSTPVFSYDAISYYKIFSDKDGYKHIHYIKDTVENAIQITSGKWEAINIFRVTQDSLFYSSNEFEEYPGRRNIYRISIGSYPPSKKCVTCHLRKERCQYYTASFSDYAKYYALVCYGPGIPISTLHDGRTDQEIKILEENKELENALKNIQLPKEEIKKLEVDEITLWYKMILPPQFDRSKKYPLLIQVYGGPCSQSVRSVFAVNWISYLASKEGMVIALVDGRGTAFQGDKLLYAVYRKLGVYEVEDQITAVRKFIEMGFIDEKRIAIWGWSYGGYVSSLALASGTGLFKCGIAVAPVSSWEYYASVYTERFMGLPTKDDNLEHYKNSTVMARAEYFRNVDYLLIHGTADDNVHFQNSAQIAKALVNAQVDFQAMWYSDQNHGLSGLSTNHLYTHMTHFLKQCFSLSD
In short: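 Recombinant human FAP, 10 ng per reaction, in 50 mM HEPES pH 7.2 with 150 mM NaCl, 0.1 mg/ml BSA, 1 mM EDTA; HyLite Fluor 488/QXL 520 FRET peptide of human FGF21 sequence at 6 μM final, ≤0.1% DMSO, 37° C. IC50 from 8-point curves by four-parameter logistic fit.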

DPP4 = DPP4 (Homo sapiens, UniProt P27487); test: DPP4 inhibition, fluorogenic substrate H-Gly-Pro-AMC; parameters: purchased R&D Systems; conditions: recombinant human DPP4
Chain of DPP4 (P27487 whole entry): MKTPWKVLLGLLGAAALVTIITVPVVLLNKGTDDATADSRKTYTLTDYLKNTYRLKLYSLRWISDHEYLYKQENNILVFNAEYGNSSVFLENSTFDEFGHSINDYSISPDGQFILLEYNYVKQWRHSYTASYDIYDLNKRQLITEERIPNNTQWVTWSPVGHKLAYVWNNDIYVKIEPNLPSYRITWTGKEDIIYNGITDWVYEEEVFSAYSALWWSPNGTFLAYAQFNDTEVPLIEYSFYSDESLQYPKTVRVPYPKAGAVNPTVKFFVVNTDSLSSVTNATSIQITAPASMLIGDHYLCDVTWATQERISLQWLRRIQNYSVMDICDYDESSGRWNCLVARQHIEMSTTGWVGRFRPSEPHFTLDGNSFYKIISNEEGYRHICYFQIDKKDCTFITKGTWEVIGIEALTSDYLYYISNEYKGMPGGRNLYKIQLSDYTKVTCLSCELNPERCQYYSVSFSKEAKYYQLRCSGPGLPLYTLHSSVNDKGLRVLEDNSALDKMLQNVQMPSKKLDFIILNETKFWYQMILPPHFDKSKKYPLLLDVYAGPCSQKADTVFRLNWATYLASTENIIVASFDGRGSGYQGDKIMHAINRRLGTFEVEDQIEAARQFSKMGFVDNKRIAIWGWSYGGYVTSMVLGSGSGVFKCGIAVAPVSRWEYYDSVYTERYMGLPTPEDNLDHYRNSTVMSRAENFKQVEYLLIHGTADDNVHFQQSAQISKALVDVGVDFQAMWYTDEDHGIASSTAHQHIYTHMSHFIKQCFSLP

Recombinant human FAP [2] = molecular target: T4, Recombinant human FAP; test: FAP inhibition, fluorogenic substrate Z-Gly-Pro-AMC; conditions: recombinant human FAP, substrate Z-Gly-Pro-AMC
In short: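 Recombinant human FAP, 10 ng per reaction, in 50 mM Tris pH 7.5 with 1 M NaCl and 1 mg/ml BSA at 25° C; substrate Z-Gly-Pro-AMC, ≤0.1% DMSO. AMC fluorescence read at ex 380/em 460 nm; % signal-rate decrease vs no-inhibitor control, 8-point curves fitted to a four-parameter logistic for IC50.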

recombinant human DPP8 = molecular target: T5, recombinant human DPP8 (Homo sapiens, UniProt Q6V1X1); test: DPP8 inhibition, fluorogenic substrate Z-Ala-Pro-AMC; conditions: recombinant human DPP8
T5 construct: purchased PBS Bioscience
T5 sequence (Q6V1X1 whole entry): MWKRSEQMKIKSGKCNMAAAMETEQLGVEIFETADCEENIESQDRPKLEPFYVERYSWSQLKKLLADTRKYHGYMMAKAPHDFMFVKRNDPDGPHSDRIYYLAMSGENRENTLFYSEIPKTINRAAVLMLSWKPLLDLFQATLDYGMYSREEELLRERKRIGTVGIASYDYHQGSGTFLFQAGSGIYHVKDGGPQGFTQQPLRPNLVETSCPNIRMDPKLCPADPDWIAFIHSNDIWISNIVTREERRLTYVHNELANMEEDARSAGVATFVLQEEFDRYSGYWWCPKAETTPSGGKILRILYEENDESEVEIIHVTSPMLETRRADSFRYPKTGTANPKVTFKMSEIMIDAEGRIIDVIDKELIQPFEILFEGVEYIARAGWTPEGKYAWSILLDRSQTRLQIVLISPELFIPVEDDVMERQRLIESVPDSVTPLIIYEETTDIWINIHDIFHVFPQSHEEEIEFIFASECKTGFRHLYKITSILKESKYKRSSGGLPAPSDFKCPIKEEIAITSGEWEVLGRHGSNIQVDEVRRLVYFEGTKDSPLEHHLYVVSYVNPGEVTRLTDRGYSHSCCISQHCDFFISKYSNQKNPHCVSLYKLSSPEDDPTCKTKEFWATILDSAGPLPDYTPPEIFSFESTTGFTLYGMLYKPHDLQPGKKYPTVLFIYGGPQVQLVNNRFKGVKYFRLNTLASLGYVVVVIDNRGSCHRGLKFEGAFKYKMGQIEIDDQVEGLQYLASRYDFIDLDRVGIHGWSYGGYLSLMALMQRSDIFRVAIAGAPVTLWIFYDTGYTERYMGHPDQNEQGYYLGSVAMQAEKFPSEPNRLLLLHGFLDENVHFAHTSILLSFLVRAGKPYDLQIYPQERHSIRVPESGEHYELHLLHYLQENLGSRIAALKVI
Method: The compounds according to the present technology were evaluated in terms of the inhibitory effect on the activity of dipeptidyl peptidases including FAP by using a substrate producing fluorescent substances upon enzymatic decomposition. The test was conducted at 25° C. to get a final reaction volume of 100 μL in a 96 black well plate. […] Briefly, the test compounds were dissolved in dimethyl sulfoxide (DMSO) at a concentration of 20 mM and then subjected to serial dilution, thereby creating an 8 point curve. As for the control group, a 6 point curve created by serial dilution of Talabostat in the same buffer solution was used. Fluorescence intensity was measured using a microplate reader (Flexstation3, Molecular Devices) under the wavelength condition exciting at 380 nm and reading the emission at 460 nm. The inhibitory effect of the test compounds was measured as a decrease (%) in the signal rate as compared to the control group without any inhibitor. Data was fixed to a logistic model with four variables and IC50 value was calculated using GraphPad Prism program. As for recombinant human DPP4 (R&D Systems), 25 mM tris (pH 8.0) buffer as a buffer solution and H-Gly-Pro-AMC (Bachem) as a substrate were used. As for recombinant human DPP7 (R&D Systems), 25 mM MES (pH 6.0) buffer as a buffer solution and Lys-Pro-AMC (Bachem) as a substrate were used. As for recombinant human DPP8 (PBS Bioscience), as a buffer solution, a 10 mM tris (pH 7.4) buffer comprising 10 mM of magnesium chloride and 0.05% of Tween 20, and Z-Ala-Pro-AMC (BPS Bioscience) as a substrate were used. As for recombinant human DPP9 (R&D Systems), a 25 mM tris (pH 8.0) buffer as a buffer solution and H-Gly-Pro-AMC (Bachem) as a substrate were used. As for recombinant human PREP (R&D System), as a buffer solution, a 25 mM tris (pH 7.5) buffer comprising 250 mM sodium chloride and 2.5 mM DTT (Dithiolthreitol), and Z-Gly-Pro-AMC (Bachem) as a substrate were used. The evaluation was made by using 10 ng of DPP4, PDD7, and PREP, 20 ng of DPP8, and 50 ng of DPP9 based on the final reaction. In the evaluation of DPP4, the test compounds were subjected to serial dilution in a buffer under the condition containing up to 0.1% of DMSO. In the evaluation of DPP7, DPP8, DPP9, and PREP, the test compounds were subjected to serial dilution in each buffer under the condition containing up to 0.5% of DMSO.

| Structure (SMILES) | IC50 (recombinant human DPP7) | IC50 (recombinant human DPP9) | IC50 (recombinant human PREP) | IC50 (Recombinant human FAP [1]) | IC50 (DPP4) | IC50 (Recombinant human FAP [2]) | IC50 (recombinant human DPP8) |
| --- | --- | --- | --- | --- | --- | --- | --- |
| CCN(c1cnc2ccccc2c1)C1CCN(CC(=O)N2C[C@@H](F)C[C@H]2C#N)CC1 [Example 304, (2S,4S)-1-[2-[4-[ethyl(3-quinolyl)amino]-1-piperidyl]acetyl]-4-fluoro-pyrrolidine-2-carbonitrile] | 1050 nM | 7.6 µM | 117 nM | 8 nM | 18.8 µM |  |  |
| CCN(c1ccc2ncccc2c1)C1CCN(CC(=O)N2C[C@@H](F)C[C@H]2C#N)CC1 [Example 306, (2S,4S)-1-[2-[4-[ethyl(6-quinolyl)amino]-1-piperidyl]acetyl]-4-fluoro-pyrrolidine-2-carbonitrile] | 477 nM | 13.2 µM | 129 nM | 4.4 nM | 24.3 µM |  |  |
| CCOc1ccc(NC2CCN(CC(=O)N3C[C@@H](F)C[C@H]3C#N)CC2)c2cccnc12 [Example 371, (2S,4S)-1-[2-[4-[(8-ethoxy-5-quinolyl)amino]-1-piperidyl]acetyl]-4-fluoro-pyrrolidine-2-carbonitrile] | 307 nM | 5.2 µM | 4910 nM | 7 nM | 4.57 µM |  |  |
| N#C[C@@H]1C[C@H](F)CN1C(=O)CN1CCC(Nc2cccc3ncsc23)CC1 [Example 372, (2S,4S)-1-[2-[4-(1,3-benzothiazol-7-ylamino)-1-piperidyl]acetyl]-4-fluoro-pyrrolidine-2-carbonitrile] | 645 nM | 0.945 µM | 2000 nM | 51.6 nM | 1.65 µM |  |  |
| N#C[C@@H]1C[C@H](F)CN1C(=O)CN1CCC(Nc2cc(Cl)c3ncccc3c2)CC1 [Example 376, (2S,4S)-1-[2-[4-[(8-chloro-6-quinolyl)amino]-1-piperidyl]acetyl]-4-fluoro-pyrrolidine-2-carbonitrile] | 226 nM | 4.37 µM | 870 nM | 7 nM | 3.51 µM |  |  |

Second part, the compound after the results:

| IC50 (recombinant human DPP7) | IC50 (recombinant human DPP9) | IC50 (recombinant human PREP) | IC50 (Recombinant human FAP [1]) | IC50 (DPP4) | IC50 (Recombinant human FAP [2]) | IC50 (recombinant human DPP8) | Structure (SMILES) |
| --- | --- | --- | --- | --- | --- | --- | --- |
| 358 nM | 1.32 µM | 1420 nM | 5.9 nM | 1.52 µM |  |  | CNC(=O)c1ccc(NC2CCN(CC(=O)N3C[C@@H](F)C[C@H]3C#N)CC2)c2cccnc12 [Example 390, N-methyl-5-[[1-[2-oxo-2-[(2S,4S)-2-cyano-4-fluoro-pyrrolidin-1-yl]ethyl]-4-piperidyl]amino]quinoline-8-carboxamide] |
| 361 nM | 1.09 µM | 421 nM | 1.3 nM | 2.54 µM |  |  | N#C[C@@H]1C[C@H](F)CN1C(=O)CN1CCC(Nc2ccc(C(=O)Nc3ccccc3)c3ncccc23)CC1 [Example 394, 5-[[1-[2-oxo-2-[(2S,4S)-2-cyano-4-fluoro-pyrrolidin-1-yl]ethyl]-4-piperidyl]amino]-N-phenyl-quinoline-8-carboxamide] |
| 875 nM | 7.42 µM | 1770 nM | 3.1 nM | 16.4 µM |  |  | N#C[C@@H]1CCCN1C(=O)CN1CCC(Nc2ccc(C(=O)Nc3ccccc3)c3ncccc23)CC1 [Example 396, 5-[[1-[2-oxo-2-[(2S)-2-cyanopyrrolidin-1-yl]ethyl]-4-piperidyl]amino]-N-phenyl-quinoline-8-carboxamide] |
| 62.6 nM | 1.86 µM | 1630 nM | 7.5 nM | 1.32 µM |  |  | CC(=O)Nc1ccc(NC2CCN(CC(=O)N3C[C@@H](F)C[C@H]3C#N)CC2)c2cccnc12 [Example 409, N-[5-[[1-[2-oxo-2-[(2S,4S)-2-cyano-4-fluoro-pyrrolidin-1-yl]ethyl]-4-piperidyl]amino]-8-quinolyl]acetamide] |
| 3890 nM | 48.9 µM |  |  | > 10 µM | 2.3 nM | 13.1 µM | COc1ccc2nc(C)cc(OC3CCN(CC(=O)N4C[C@@H](F)C[C@H]4C#N)CC3)c2c1 [Example 424, (2S,4S)-4-fluoro-1-[2-[4-[(6-methoxy-2-methyl-4-quinolyl)oxy]-1-piperidyl]acetyl]pyrrolidine-2-carbonitrile] |
| 2150 nM | 33.8 µM | 1330 nM | 7 nM | 7.24 µM |  |  | N#C[C@@H]1C[C@H](F)CN1C(=O)CN1CCC(Oc2cccc3ncccc23)CC1 [Example 425, (2S,4S)-4-fluoro-1-[2-[4-(5-quinolyloxy)-1-piperidyl]acetyl]pyrrolidine-2-carbonitrile] |
| 9400 nM | ≥ 100 µM | 10800 nM | 3.9 nM | 54.8 µM |  |  | COc1ccc2nccc(OC3CCN(CC(=O)N4CCC[C@H]4C#N)CC3)c2c1 [Example 426, (2S)-1-[2-[4-[(6-methoxy-4-quinolyl)oxy]-1-piperidyl]acetyl]pyrrolidine-2-carbonitrile] |
